From publication PMC11724923 (Nature Communications, 2025)
Blank lines part the entries; values can stand above or below the molecule they belong to.

Key:
PRDX1 [1] = biological target: T1, PRDX1 (Homo sapiens, UniProt Q06830); assay: SPR with sodium palmitate; format: binding
T1 sequence (Q06830 1-199): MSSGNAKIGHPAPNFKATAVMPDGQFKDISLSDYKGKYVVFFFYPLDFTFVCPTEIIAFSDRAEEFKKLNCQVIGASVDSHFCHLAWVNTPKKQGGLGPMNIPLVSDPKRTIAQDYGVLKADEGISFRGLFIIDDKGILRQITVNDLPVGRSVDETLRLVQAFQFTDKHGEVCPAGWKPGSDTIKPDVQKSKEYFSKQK

PRDX1 [2] = biological target: T1, PRDX1; assay: SPR; format: binding
crystal structure = biological target: the molecule itself; assay: crystal structure

Kd (PRDX1 [1]): 75.3 ± 4.5 µM
Molecule: CCCCCCCCCCCCCCCC(=O)O [PA, palmitic acid]

Kd (PRDX1 [2]): 0.3757 ± 0.0025 µM
Molecule: O=C(/C=C/c1ccc(O)c(O)c1)O[C@H](Cc1ccc(O)c(O)c1)C(=O)O [RA, rosmarinic acid]

B1: PRDX1^C52SC83S (aa 1-175) (enzyme, human, UniProt Q06830 1-175, looked up)
chain: MSSGNAKIGHPAPNFKATAVMPDGQFKDISLSDYKGKYVVFFFYPLDFTFVSPTEIIAFSDRAEEFKKLNCQVIGASVDSHFSHLAWVNTPKKQGGLGPMNIPLVSDPKRTIAQDYGVLKADEGISFRGLFIIDDKGILRQITVNDLPVGRSVDETLRLVQAFQFTDKHGEVCPA
binding result (crystal structure): binds
